Measurements from ChEMBL document CHEMBL3792292, “Development of a potent and selective FLT3 kinase inhibitor by systematic expansion of a non-selective fragment-screening hit” (Bioorg Med Chem Lett, 2016).
pIC50: −log10 of the molar value.

Target: T1, Receptor-type tyrosine-protein kinase FLT3 (Homo sapiens, UniProt P36888)
T1 sequence (P36888 whole entry): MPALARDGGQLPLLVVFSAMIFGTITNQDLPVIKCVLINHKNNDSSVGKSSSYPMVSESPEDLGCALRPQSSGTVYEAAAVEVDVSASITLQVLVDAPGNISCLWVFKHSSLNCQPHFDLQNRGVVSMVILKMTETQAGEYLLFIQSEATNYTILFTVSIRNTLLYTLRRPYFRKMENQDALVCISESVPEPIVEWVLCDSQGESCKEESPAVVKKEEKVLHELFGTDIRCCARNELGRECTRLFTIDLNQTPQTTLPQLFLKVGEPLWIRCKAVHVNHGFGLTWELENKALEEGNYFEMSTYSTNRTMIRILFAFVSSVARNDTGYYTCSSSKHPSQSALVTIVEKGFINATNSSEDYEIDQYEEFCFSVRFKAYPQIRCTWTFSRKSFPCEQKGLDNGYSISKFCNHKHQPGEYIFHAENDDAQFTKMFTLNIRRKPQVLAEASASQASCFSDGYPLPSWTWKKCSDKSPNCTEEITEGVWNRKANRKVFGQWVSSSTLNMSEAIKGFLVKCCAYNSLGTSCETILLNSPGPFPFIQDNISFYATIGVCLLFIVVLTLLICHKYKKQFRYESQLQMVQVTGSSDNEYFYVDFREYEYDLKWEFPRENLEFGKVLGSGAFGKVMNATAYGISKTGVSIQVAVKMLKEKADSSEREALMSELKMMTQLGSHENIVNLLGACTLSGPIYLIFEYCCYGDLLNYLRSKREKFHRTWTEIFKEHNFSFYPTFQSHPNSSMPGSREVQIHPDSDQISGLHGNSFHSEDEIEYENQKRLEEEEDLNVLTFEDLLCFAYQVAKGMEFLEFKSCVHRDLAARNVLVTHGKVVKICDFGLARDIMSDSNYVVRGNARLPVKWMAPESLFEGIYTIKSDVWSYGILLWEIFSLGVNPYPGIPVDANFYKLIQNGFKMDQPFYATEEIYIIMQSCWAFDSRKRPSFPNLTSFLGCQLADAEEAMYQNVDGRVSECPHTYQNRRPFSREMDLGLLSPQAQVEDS
Assay: Inhibition of human N-terminal GST-tagged FLT3 cytoplasmic domain (564 to 993 residues) expressed in baculovirus expression system using 5-FAM-peptide 2 as substrate after 2 hrs by electrophoretic mobility shift assay in presence of ATP

Compound: CN(C(=O)c1n[nH]c2ccccc12)c1ccccc1
- pIC50: < 5.70

Compound: COc1ccccc1NC(=O)c1n[nH]c2ccccc12
- pIC50: < 5.70

Compound: COC(=O)c1ccccc1NC(=O)c1n[nH]c2ccccc12
- pIC50: < 5.70

Compound: O=C(Nc1ccccc1)c1c[nH]c2ccccc12
- pIC50: < 5.70

Compound: Cc1ccccc1NC(=O)c1n[nH]c2ccccc12
- pIC50: < 5.70

Compound: Cn1nc(C(=O)Nc2ccccc2)c2ccccc21
- pIC50: < 5.70

Compound: COC(=O)c1cccc(NC(=O)c2n[nH]c3ccccc23)c1
- pIC50: < 5.70

Compound: O=C(Nc1ccc(N2CCN(c3ccccc3)CC2)cc1)c1n[nH]c2ccccc12
- pIC50: < 5.70

Compound: COc1ccc(NC(=O)c2n[nH]c3ccccc23)cc1
- pIC50: 6.45
